IC50 and Activity data for 30 compounds are collected here from ChEMBL document CHEMBL1143222, “Synthesis and in vitro activity of N'-cyano-4-(2-phenylacetyl)-N-o-tolylpiperazine-1-carboximidamide P2X7 antagonists” (Bioorg Med Chem Lett, 2008).

By IC50 is commonly meant the concentration needed to halve the response being measured.

Assay [1] deals with T1, P2X purinoceptor 7 (Rattus norvegicus, UniProt Q64663).
T1 sequence (Q64663 whole entry): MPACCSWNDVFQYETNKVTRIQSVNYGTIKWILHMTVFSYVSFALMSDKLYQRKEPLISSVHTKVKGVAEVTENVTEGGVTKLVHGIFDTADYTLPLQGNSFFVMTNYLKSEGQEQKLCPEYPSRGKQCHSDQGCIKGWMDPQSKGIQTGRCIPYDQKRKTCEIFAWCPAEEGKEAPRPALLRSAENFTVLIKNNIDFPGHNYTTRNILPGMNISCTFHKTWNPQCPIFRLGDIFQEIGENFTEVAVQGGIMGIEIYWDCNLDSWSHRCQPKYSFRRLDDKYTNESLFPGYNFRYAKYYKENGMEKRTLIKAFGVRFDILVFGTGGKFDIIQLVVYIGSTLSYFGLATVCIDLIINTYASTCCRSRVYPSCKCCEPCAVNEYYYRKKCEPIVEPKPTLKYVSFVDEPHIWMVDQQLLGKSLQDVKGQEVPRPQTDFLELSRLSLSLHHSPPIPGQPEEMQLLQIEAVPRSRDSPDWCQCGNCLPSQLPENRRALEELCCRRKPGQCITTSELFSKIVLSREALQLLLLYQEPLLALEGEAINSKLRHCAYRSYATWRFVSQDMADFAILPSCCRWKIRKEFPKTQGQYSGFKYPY
As to the kind of experiment: Antagonist activity at rat recombinant P2X7 receptor assessed as inhibition of calcium flux by FLIPR assay. Format: functional. (In general: Calcium flux is commonly read through the fluorescence of an indicator in the cells.)

Assay [2] has as its target T2, P2X purinoceptor 7 (Homo sapiens, UniProt Q99572).
T2 sequence (Q99572 whole entry): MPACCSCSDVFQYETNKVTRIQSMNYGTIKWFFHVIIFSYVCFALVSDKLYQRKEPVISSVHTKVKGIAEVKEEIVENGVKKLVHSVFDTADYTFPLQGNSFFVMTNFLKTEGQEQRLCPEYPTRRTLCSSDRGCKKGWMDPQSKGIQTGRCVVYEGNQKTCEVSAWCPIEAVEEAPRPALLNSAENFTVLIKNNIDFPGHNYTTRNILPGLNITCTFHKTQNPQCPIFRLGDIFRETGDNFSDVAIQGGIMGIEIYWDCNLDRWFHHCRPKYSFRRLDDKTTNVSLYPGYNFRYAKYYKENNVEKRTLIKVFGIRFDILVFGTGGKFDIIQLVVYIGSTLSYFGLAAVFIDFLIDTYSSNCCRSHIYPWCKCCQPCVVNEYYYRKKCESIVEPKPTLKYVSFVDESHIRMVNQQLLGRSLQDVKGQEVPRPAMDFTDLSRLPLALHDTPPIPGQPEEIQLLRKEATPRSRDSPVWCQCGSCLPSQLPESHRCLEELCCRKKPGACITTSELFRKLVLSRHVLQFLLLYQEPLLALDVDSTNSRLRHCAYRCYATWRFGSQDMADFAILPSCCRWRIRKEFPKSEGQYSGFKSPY
As to the kind of experiment: Antagonist activity at human recombinant P2X7 receptor assessed as inhibition of calcium flux by FLIPR assay. Format: functional.

In assay [3] the target is T3, P2X purinoceptor 3 (Homo sapiens) (UniProt P56373).
T3 sequence (whole entry): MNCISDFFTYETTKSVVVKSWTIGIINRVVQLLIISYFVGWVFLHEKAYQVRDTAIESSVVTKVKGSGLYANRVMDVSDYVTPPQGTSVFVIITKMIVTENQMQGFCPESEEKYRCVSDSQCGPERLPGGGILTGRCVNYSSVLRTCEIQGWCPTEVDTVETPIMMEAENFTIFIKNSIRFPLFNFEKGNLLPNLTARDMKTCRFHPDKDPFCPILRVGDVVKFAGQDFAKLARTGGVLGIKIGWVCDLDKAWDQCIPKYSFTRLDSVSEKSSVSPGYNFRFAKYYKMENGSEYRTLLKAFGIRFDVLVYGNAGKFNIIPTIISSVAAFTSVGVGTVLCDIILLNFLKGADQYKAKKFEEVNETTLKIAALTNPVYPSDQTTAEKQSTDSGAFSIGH
As to the kind of experiment: Inhibition of P2X3 receptor at 10 uM.

Assay [4] concerns the target T4, P2X purinoceptor 4 (Homo sapiens) (UniProt Q99571).
T4 sequence (whole entry): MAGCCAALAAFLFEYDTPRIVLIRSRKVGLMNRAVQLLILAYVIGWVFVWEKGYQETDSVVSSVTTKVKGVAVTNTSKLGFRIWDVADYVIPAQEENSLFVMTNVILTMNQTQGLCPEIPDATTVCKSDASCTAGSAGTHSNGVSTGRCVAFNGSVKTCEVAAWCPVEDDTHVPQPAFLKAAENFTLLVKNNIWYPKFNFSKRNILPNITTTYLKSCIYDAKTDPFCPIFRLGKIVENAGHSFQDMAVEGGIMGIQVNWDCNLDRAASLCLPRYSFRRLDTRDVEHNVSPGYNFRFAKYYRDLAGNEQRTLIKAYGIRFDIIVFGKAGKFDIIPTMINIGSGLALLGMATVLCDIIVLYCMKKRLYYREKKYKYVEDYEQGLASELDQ
As to the kind of experiment: Inhibition of P2X4 receptor at 10 uM.

Assay [5] can be described thus: Inhibition of P2X2/3 receptor at 10 uM.
Assay [6] deals with P2Y purinoceptor 2 (Homo sapiens) (UniProt P41231). Briefly: Inhibition of P2Y2 receptor at 10 uM.

SMILES strings stand for the structures. Calls of active or inactive are those of the source. The rule behind the calls is not given here.

Chain of P2Y purinoceptor 2 (Homo sapiens) (P41231 whole entry): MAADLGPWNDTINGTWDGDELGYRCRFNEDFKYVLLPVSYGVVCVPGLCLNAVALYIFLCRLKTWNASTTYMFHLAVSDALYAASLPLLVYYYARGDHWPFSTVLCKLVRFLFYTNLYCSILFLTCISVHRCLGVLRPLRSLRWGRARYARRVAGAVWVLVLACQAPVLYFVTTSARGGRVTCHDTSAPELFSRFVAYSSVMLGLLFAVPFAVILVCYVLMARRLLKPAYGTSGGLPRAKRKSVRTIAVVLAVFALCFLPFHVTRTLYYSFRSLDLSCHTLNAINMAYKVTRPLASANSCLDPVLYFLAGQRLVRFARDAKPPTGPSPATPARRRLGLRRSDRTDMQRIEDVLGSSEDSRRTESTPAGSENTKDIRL

Regarding `COc1ccc(CCCC(=O)N2CCN(/C(=N/C#N)Nc3ccccc3C)CC2c2ccccc2)cc1OC` (stereo unspecified), the half-maximal inhibitory concentration (IC50) on P2X purinoceptor 7 [1] is 95 nM; on P2X purinoceptor 7 [2], 70 nM.

Consider `Cc1ccccc1N=C(NC#N)N1CCN(C(=O)Cc2ccc(Cl)cc2)C(c2ccccc2)C1` (stereo unspecified), for which the figures for the IC50 at P2X purinoceptor 7 [1] and at P2X purinoceptor 7 [2] were 110 nM and 140 nM, respectively.

For the compound `COc1ccc(C(=O)N2CCN(C(=Nc3ccccc3C)NC#N)CC2c2ccccc2)cc1OC` (stereo unspecified), the 50% inhibitory concentration (IC50) at P2X purinoceptor 7 [1] came out at 290 nM; on P2X purinoceptor 7 [2] it was 94 nM.

Regarding `COc1ccc(CC(=O)N2CCN(C(=Nc3ccccc3C)NC#N)CC2c2ccccc2)cc1OC` (stereo in doubt; 26), the IC50 on P2X purinoceptor 7 [1] worked out at 140 nM; on P2X purinoceptor 7 [2], 58 nM.

In the case of `COc1ccc(CCC(=O)N2CCN(/C(=N/C#N)Nc3ccccc3C)CC2c2ccccc2)cc1OC` (stereo unspecified), the IC50 at P2X purinoceptor 7 [1] worked out at 76 nM; at P2X purinoceptor 7 [2] it was 57 nM.

Regarding `Cc1ccccc1N/C(=N\C#N)N1CCN(C(=O)Cc2c[nH]c3ccccc23)C(c2ccccc2)C1` (stereo unspecified), the values for the IC50 at P2X purinoceptor 7 [1] and on P2X purinoceptor 7 [2] were 210 nM and 100 nM, respectively.

As for `Cc1ccccc1N/C(=N\C#N)N1CCN(C(=O)Cc2c[nH]cn2)C(c2ccccc2)C1` (stereo unspecified), the IC50 on P2X purinoceptor 7 [1] was determined as 14000 nM; at P2X purinoceptor 7 [2] it was 1000 nM.

In the case of `Cc1ccccc1N/C(=N\C#N)N1CCN(C(=O)Cn2nccc2C)C(c2ccccc2)C1` (stereo unspecified), the figures for the IC50 at P2X purinoceptor 7 [1] and on P2X purinoceptor 7 [2] were 560 nM and 60 nM, respectively.

As to `COc1ccc(CC(=O)NC(NC(=NC#N)Nc2ccccc2C)C(C)(C)C)cc1OC` (stereo unspecified), the IC50 is 14 nM on P2X purinoceptor 7 [1] and 120 nM at P2X purinoceptor 7 [2].

For `Cc1cc(CC(=O)N2CCN(C(=Nc3ccccc3C)NC#N)CC2c2ccccc2)on1` (stereo unspecified), the figures for the IC50 on P2X purinoceptor 7 [1] and at P2X purinoceptor 7 [2] were 170 nM and 46 nM, respectively.

Turning to `Cc1ccccc1N/C(=N\C#N)N1CCN(C(=O)Cc2cccs2)C(c2ccccc2)C1` (stereo unspecified), the values for the IC50 on P2X purinoceptor 7 [1] and on P2X purinoceptor 7 [2] were 150 nM and 46 nM, respectively.

Turning to `COc1ccc(CC(=O)N2CCN(C(=Nc3ccccc3C)NC#N)CC2c2ccccc2)cc1OC` (stereo in doubt; 7), the IC50 on P2X purinoceptor 7 [1] turned out to be 140 nM; at P2X purinoceptor 7 [2], 58 nM.

For the compound `Cc1ccccc1N=C(NC#N)N1CCN(C(=O)Cc2ccco2)C(c2ccccc2)C1` (stereo unspecified), the IC50 at P2X purinoceptor 7 [1] came out at 520 nM; at P2X purinoceptor 7 [2] it was 110 nM.

In the case of `Cc1ccccc1N/C(=N\C#N)N1CCN(C(=O)Cc2ccsc2)C(c2ccccc2)C1` (stereo unspecified), the IC50 at P2X purinoceptor 7 [1] came out at 270 nM; on P2X purinoceptor 7 [2] it was 71 nM.

With `COc1ccc(CC(=O)N2CCN(/C(=N/C#N)Nc3ccccc3C)CC2C(C)(C)C)cc1OC` (stereo unspecified), the IC50 on P2X purinoceptor 7 [1] came out at 420 nM; on P2X purinoceptor 7 [2], 190 nM.

Consider `COc1ccc(CC(=O)NC(N/C(=N/C#N)Nc2cccc3ncccc23)C(C)(C)C)cc1OC` (stereo unspecified), for which the IC50 on P2X purinoceptor 7 [2] came out at 44 nM.

On to `Cc1ccccc1N/C(=N\C#N)N1CCN(C(=O)CC23CC4CC(CC(C4)C2)C3)C(c2ccccc2)C1` (stereo unspecified), for which the IC50 at P2X purinoceptor 7 [1] was found to be 630 nM; on P2X purinoceptor 7 [2] it was 1500 nM.

For `COc1ccc(CC(=O)N2CCN(C(=Nc3ccccc3C)NC#N)[C@H](CC(C)C)C2)cc1OC`, the IC50 at P2X purinoceptor 7 [1] turned out to be 4500 nM; at P2X purinoceptor 7 [2], 430 nM.

As to `Cc1ccn(CC(=O)N2CCN(/C(=N/C#N)Nc3ccccc3C)CC2c2ccccc2)n1` (stereo unspecified), the values for the IC50 at P2X purinoceptor 7 [1] and on P2X purinoceptor 7 [2] were 320 nM and 40 nM, respectively.

Regarding `Cc1ccccc1N/C(=N\C#N)N1CCN(C(=O)Cc2cccnc2)C(c2ccccc2)C1` (stereo unspecified), the IC50 at P2X purinoceptor 7 [1] is 390 nM; on P2X purinoceptor 7 [2], 40 nM.

As for `Cc1ccccc1N=C(NC#N)N1CCN(C(=O)Cc2ccncc2)C(c2ccccc2)C1` (stereo unspecified), the IC50 came out at 150 nM at P2X purinoceptor 7 [1] and 36 nM on P2X purinoceptor 7 [2].

`COc1ccc(CC(=O)N2CCN(C(=Nc3ccccc3C)NC#N)C(c3ccccc3)C2)cc1OC` (stereo unspecified): the IC50 at P2X purinoceptor 7 [1] stood at 220 nM; at P2X purinoceptor 7 [2], 51 nM.

In the case of `COc1ccc(CC(=O)N2CCN(C(=Nc3ccccc3C)NC#N)[C@H](C(C)C)C2)cc1OC`, the figures for the IC50 at P2X purinoceptor 7 [1] and at P2X purinoceptor 7 [2] were 16000 nM and 1300 nM, respectively.

Regarding `Cc1ccccc1N/C(=N\C#N)N1CCN(C(=O)Cc2ccoc2)C(c2ccccc2)C1` (stereo unspecified), the figures for the IC50 at P2X purinoceptor 7 [1] and on P2X purinoceptor 7 [2] were 250 nM and 220 nM, respectively.

Regarding `COc1ccc(C(=O)N2CCN(C(=Nc3cccc4ncccc34)NC#N)CC2c2ccccc2)cc1OC` (stereo unspecified), the values for the IC50 at P2X purinoceptor 7 [1] and at P2X purinoceptor 7 [2] were 30 nM and 59 nM, respectively.

Regarding `Cc1ccccc1N=C(NC#N)N1CCN(C(=O)Cc2ccccc2)C(c2ccccc2)C1` (stereo unspecified), the results for the IC50 on P2X purinoceptor 7 [1] and on P2X purinoceptor 7 [2] were 380 nM and 88 nM, respectively.

In the case of `COc1ccc(C(=O)N2CCN(/C(=N/C#N)Nc3cccc4ncccc34)CC2c2ccccc2)cc1OC` (stereo unspecified), the outcome in assay [3], in assay [4], in assay [5] and in assay [6] was inactive.

As for `COc1ccc(CC(=O)N2C(C)CN(C(=Nc3ccccc3C)NC#N)CC2C)cc1OC` (cis isomer), the results for the IC50 at P2X purinoceptor 7 [1] and on P2X purinoceptor 7 [2] were 19000 nM and 460 nM, respectively.

Regarding `Cc1ccccc1N/C(=N\C#N)N1CCN(C(=O)Cc2ccc3ccccc3c2)C(c2ccccc2)C1` (stereo unspecified), the IC50 at P2X purinoceptor 7 [1] was 140 nM; at P2X purinoceptor 7 [2], 310 nM.

For `Cc1cc(CC(=O)N2CCN(/C(=N/C#N)Nc3ccccc3C)CC2c2ccccc2)no1` (stereo unspecified), the IC50 was 610 nM on P2X purinoceptor 7 [1] and 410 nM at P2X purinoceptor 7 [2].
